This is an account of results in ChEMBL document CHEMBL3271973, “Synthesis and biological activities of 5-trifluoromethyl-5'-azido-2',5'-dideoxyuridine and 5-trifluoromethyl-5'-amino-2',5'-dideoxyuridine” (J Med Chem, 1976).

For one series, the system named is Sarcoma-180. In words: Cytotoxicity against mouse Sarcoma 180 cells after 1 to 3 days by coulter counter analysis. The format is functional, cell-based.
Series [1] is described as follows: Antiviral activity against HSV1 CL-101 infected in African green monkey Vero cells assessed as reduction of viral titer at 200 uM after 40 hrs. The format is functional, Herpes simplex virus (type 1 / strain CL101).
The nature of series [2]: Antiviral activity against HSV1 CL-101 infected in African green monkey Vero cells assessed as reduction of viral titer at 50 uM after 40 hrs. The format is functional, Herpes simplex virus (type 1 / strain CL101).
The next series relates to Vero. Briefly: Cytotoxicity against African green monkey Vero cells at 1 uM after 3 days by haemocytometer analysis. The format is cell-based. To be noted: chlorocebus sabaeus, 72 h.
Series [3] is described as follows: Therapeutic index, ratio of cytotoxicity against African green monkey Vero cells to antiviral activity against HSV1 CL-101. Format: cell-based. To be noted: read-out: TI.

Active and inactive are the calls of the source. No cut-off for these calls is given here.

With `[N-]=[N+]=NC[C@H]1O[C@@H](n2cc(C(F)(F)F)c(=O)[nH]c2=O)C[C@@H]1O`, the result with Sarcoma-180 was Active. The Activity in series [1] is recorded as 1.7 ×10⁶ PFU.

As for `O=c1[nH]c(=O)n([C@H]2C[C@H](O)[C@@H](CO)O2)cc1C(F)(F)F` [TRIFLURIDINE], the result with Sarcoma-180 was Active. The Activity in series [2] was 1.5 ×10⁵ PFU; with Vero, “Toxic”.

`NC[C@H]1O[C@@H](n2cc(C(F)(F)F)c(=O)[nH]c2=O)C[C@@H]1O`: the result in the series with Sarcoma-180 was Active. In addition, the Activity in series [1] worked out at 1 ×10⁵ PFU. For the same compound, the selectivity ratio in series [3] came out at 10.
